Measured values from ChEMBL document CHEMBL5728686, “MK2 inhibitors and uses thereof” (2021).

Biological target: MAP kinase-activated protein kinase 2 (Homo sapiens, UniProt P49137)
Experiment: Kinase reactions were started with the addition of 40 μL of MK-2 enzyme and monitored every 71 seconds for 30-240 minutes at λex360/λem485 in a Synergy2, Synergy4 or Synergy H4 plate reader from BioTek (Winooski, Vt.). […] Initial velocity (0 minutes to +30 minutes) from each reaction was estimated from the slope of a plot of relative fluorescence units vs time (minutes) and normalized to the no enzyme and no inhibitor control groups for % Inhibition. The resulting % Inhibition values were then plotted against inhibitor concentration to estimate IC50 from log[Inhibitor] vs Response, Variable Slope model in GraphPad Prism from GraphPad Software (San Diego, Calif.).

Chain of MAP kinase-activated protein kinase 2 (P49137 whole entry): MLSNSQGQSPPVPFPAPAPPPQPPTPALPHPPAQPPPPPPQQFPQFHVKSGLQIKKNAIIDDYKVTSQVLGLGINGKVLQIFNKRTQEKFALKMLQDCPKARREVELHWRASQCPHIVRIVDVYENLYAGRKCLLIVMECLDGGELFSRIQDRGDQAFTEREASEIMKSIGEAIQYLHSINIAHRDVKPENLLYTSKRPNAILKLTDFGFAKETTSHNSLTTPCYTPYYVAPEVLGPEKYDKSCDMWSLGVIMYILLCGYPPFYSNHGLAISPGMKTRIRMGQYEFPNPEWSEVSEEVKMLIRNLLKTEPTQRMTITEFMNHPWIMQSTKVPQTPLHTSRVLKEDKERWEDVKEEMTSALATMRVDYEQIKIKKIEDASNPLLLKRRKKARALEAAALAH

Row | EC50 [nM] | IC50 [nM] | Structure (SMILES)
1 | < 100 | < 100 | C=CC(=O)Nc1cc(NC(=O)c2ccc3sc4c(c3c2)NC[C@@H](C)NC4=O)ccc1C1CCN(C)CC1
2 | – | < 100 | C=CC(=O)N1CCOc2ccc(-c3cc4c(cn3)CCc3c-4[nH]c4c3C(=O)NCC4)cc21
3 | < 100 | < 100 | C=CC(=O)Nc1cc(-c2cc3c(ccc4c5c([nH]c43)CCC5=O)cn2)ccc1C
